Experimental data as given in ChEMBL document CHEMBL1143537, “Discovery, synthesis and biological evaluation of novel glucokinase activators” (Bioorg Med Chem Lett, 2005).

Experiments:
[1] = molecular target: T1, Hexokinase-4 (Homo sapiens, UniProt P35557); experiment: Potency in Glucokinase activation assay
T1 sequence (P35557 whole entry): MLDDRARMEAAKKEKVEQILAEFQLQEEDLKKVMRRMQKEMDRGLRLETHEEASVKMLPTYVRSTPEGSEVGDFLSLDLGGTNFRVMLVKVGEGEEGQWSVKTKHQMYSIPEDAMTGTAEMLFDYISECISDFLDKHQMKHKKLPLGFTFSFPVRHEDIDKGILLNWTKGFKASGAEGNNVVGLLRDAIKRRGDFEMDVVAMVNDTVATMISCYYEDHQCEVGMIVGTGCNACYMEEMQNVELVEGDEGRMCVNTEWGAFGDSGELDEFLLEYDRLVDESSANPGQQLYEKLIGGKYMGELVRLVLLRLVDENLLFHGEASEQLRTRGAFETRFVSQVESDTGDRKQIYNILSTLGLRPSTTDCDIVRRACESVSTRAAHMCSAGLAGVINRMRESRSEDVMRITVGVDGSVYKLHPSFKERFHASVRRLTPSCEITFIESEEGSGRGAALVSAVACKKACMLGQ

[2] = Clearance value of the compound; type: ADME, organism-based; conditions: rat, in vivo
[3] = Volume of distribution of the compound; type: ADME; conditions: rat; read-out: Activity
[4] = Half life value of the compound; type: ADME; conditions: rat

SMILES	EC50 [1] [nM]	other results
CC(C)Oc1cc(OCCC2CCOCC2)cc(C(=O)Nc2ccc(C(=O)O)cn2)c1	1330	–
O=C(O)c1ccc(NC(=O)c2cc(OCc3ccccc3)cc(OCc3ccccc3)c2)nc1	400	–
O=C(O)c1ccc(NC(=O)c2cc(OCc3ccccc3F)cc(OCc3ccccc3F)c2)nc1	90	–
CSc1ccc(OCc2ccccc2)c(NC(=O)c2ccc(C(=O)O)cn2)c1	> 10000	–
O=C(O)c1ccc(NC(=O)c2cccc(OCc3ccccc3Cl)c2)nc1	910	–
O=C(O)c1ccc(CCc2cc(OCc3ccccc3)cc(OCc3ccccc3)c2)nc1	> 10000	–
O=C(O)c1ccc(NC(=O)c2ccccc2OCc2ccccc2)nc1	> 10000	–
CSc1ccc(OCc2ccccc2)c(C(=O)Nc2ccc(C(=O)O)cn2)c1	4220	–
CC(C)Oc1cc(OCCC2CCCC2)cc(C(=O)Nc2ccc(C(=O)O)cn2)c1	170	–
CC(C)Oc1cc(OCCCc2ccccc2)cc(C(=O)Nc2ccc(C(=O)O)cn2)c1	420	–
CC(C)Oc1cc(OCc2ccccc2F)cc(C(=O)Nc2ccc(C(=O)O)cn2)c1	100	–
CC(C)Oc1cc(OCc2ccccc2)cc(C(=O)Nc2ccc(C(=O)O)cn2)c1	290	–
O=C(O)c1ccc(C(=O)Nc2cc(OCc3ccccc3)cc(OCc3ccccc3)c2)nc1	> 10000	–
CSc1ccc(OCc2ccccc2)c(/C=C/c2ccc(C(=O)O)cn2)c1	3200	–
CC(C)Oc1cc(OCCc2ccccc2)cc(C(=O)Nc2ccc(C(=O)O)cn2)c1	130	–
CC(C)Oc1cc(OCCc2cccnc2)cc(C(=O)Nc2ccc(C(=O)O)cn2)c1	1260	–
CC(C)COc1cc(OC(C)C)cc(C(=O)Nc2ccc(C(=O)O)cn2)c1	570	–
CC(C)Oc1cc(OCC2CCCC2)cc(C(=O)Nc2ccc(C(=O)O)cn2)c1	650	–
COc1cc(OC)cc(OCc2ccc(C(=O)O)cn2)c1	> 10000	–
O=C(O)c1ccc(NC(=O)c2cccc(OCc3ccccc3Cl)c2OCc2ccccc2Cl)nc1	> 10000	–
O=C(O)c1ccc(OCc2cc(OCc3ccccc3)cc(OCc3ccccc3)c2)nc1	> 10000	–
CC(C)Oc1cc(OCCc2ccncc2)cc(C(=O)Nc2ccc(C(=O)O)cn2)c1	1780	–
CC(C)Oc1cc(OCCc2ccsc2)cc(C(=O)Nc2ccc(C(=O)O)cn2)c1	–	clearance [2]: 3.8 mL/min/kg; Vd [3]: 0.3 L/kg; half-life [4]: 54 min
